Data taken from the supplement of paper PMC10307832.

How the values were obtained:
Experiment in all cases: relative viability (nuclei count vs DMSO), 5 days (fraction); higher = more cells survive
[1] = compound: C1CN(CCN1)C2=CC=C(C=C2)C3=CN4C(=C(C=N4)C5=CC=NC6=CC=CC=C56)N=C3 [DM3189]
Outline: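 Viability was defined as treated-well nuclei divided by vehicle-well nuclei, with the median taken over replicate plates. Cells from lung cancer lines sat overnight at 37 °C in 1536-well plates, received five √10-spaced library-drug doses by pinning on vehicle-anchored plates, and grew 5 days without medium change before one-step fixation, permeabilisation and Hoechst staining, 4× imaging and MetaXpress nuclear counts. Only plates with control CV under 25% and at least one doubling were kept.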

[2] = compound: C1CN(CCN1)C2=CC=C(C=C2)C3=CN4C(=C(C=N4)C5=CC=NC6=CC=CC=C56)N=C3 [DM3189] + C[C@]1(O)C[C@@H](c2nc(-c3ccc4ccc(-c5ccccc5)nc4c3)c3c(N)nccn32)C1 [Linsitinib] (partner 1 µM)
Outline: (§1)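 Values are medians from duplicate plates. Each reflects relative viability, defined as the nuclei count of treated wells over that of vehicle wells. Lung cancer cell lines in 1536-well plates were pin-tool dosed one day after seeding with one drug alone or with a fixed anchor-drug dose plus five library-drug doses (not always all listed) in √10 steps, then fixed, stained and imaged at 4× after 5 days.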

[3] = compound: C1CN(CCN1)C2=CC=C(C=C2)C3=CN4C(=C(C=N4)C5=CC=NC6=CC=CC=C56)N=C3 [DM3189] + COc1cc2c(Oc3ccc(NC(=O)C4(C(=O)Nc5ccc(F)cc5)CC4)cc3F)ccnc2cc1OCCCN1CCOCC1 [Foretinib] (partner 0.25 µM)
Outline: as §1

[4] = compound: C1CN(CCN1)C2=CC=C(C=C2)C3=CN4C(=C(C=N4)C5=CC=NC6=CC=CC=C56)N=C3 [DM3189] + N=C(N)NC(=N)NCCc1ccccc1 [Phenformin] (partner 250 µM)
Outline: as §1

[5] = compound: C1CN(CCN1)C2=CC=C(C=C2)C3=CN4C(=C(C=N4)C5=CC=NC6=CC=CC=C56)N=C3 [DM3189] + C[C@@H](Oc1cc(-c2cnn(C3CCNCC3)c2)cnc1N)c1c(Cl)ccc(F)c1Cl [Crizotinib] (partner 1 µM)
Outline: as §1

Cell Line	relative viability ([1]; 0.08 µM)	relative viability ([1]; 0.253 µM)	relative viability ([1]; 0.8 µM)	relative viability ([1]; 2.53 µM)	relative viability ([2]; first compound 0.08 µM)	relative viability ([2]; first compound 0.253 µM)	relative viability ([2]; first compound 0.8 µM)	relative viability ([2]; first compound 2.53 µM)	relative viability ([3]; first compound 0.08 µM)	relative viability ([3]; first compound 0.253 µM)	relative viability ([3]; first compound 0.8 µM)	relative viability ([3]; first compound 2.53 µM)	relative viability ([4]; first compound 0.08 µM)	relative viability ([4]; first compound 0.253 µM)	relative viability ([4]; first compound 0.8 µM)	relative viability ([4]; first compound 2.53 µM)	relative viability ([5]; first compound 0.08 µM)	relative viability ([5]; first compound 0.253 µM)	relative viability ([5]; first compound 0.8 µM)	relative viability ([5]; first compound 2.53 µM)
COR-L 105	1.22	0.95	0.853	0.808	0.905	1.08	0.804	1.25	1.22	1.23	1.06	1.17	0.534	0.53	0.433	0.297	0.864	0.685	0.603	0.538
NCI-H23	1.13	0.805	0.804	0.842	0.649	0.588	0.445	0.742	1.01	0.861	0.882	0.982	0.865	0.761	0.643	0.826	0.545	0.491	0.442	0.579
PC-14	1.14	0.954	0.871	0.932	1.03	0.953	0.903	0.879	1.02	0.985	0.876	1.07	0.817	0.527	0.435	0.487	0.807	0.914	0.791	0.862
EMC-BAC-2	1.09	0.898	0.936	1.22	0.848	0.8	0.82	0.827	0.981	0.966	0.938	1.18	0.554	0.495	0.456	0.436	0.8	0.71	0.686	0.773
LU99A	1.05	0.912		0.933	0.49	0.49		0.445	0.82	0.731		0.661	0.964	0.735		0.8	0.573	0.527		0.509
RERF-LC-KJ	1.16	1.04	1.04	1.05	0.932	0.879	0.861	0.978	1.03	0.904	0.927	0.97	0.451	0.4	0.407	0.426	0.887	0.812	0.863	0.885
NCI-H647	0.954	0.824	0.734	0.794	0.966	0.946	1	1.17	1.06	1.13	1.08	1.01	0.664	0.4	0.546	0.228	1.12	0.877	0.883	0.307
LCLC-97TM1	1.06	0.806	0.797	0.644	0.162	0.188	0.145	0.181	0.877	0.857	0.765	0.747	0.459	0.364	0.433	0.399	0.304	0.249	0.297	0.313
NCI-H2009	1.1	1.03	0.893	1.05	1.24	1.21	1.11	1.29	1.22	1.16	1.14	1.25	0.526	0.471	0.438	0.445	1.07	1.03	0.933	0.922
HARA	1.07	0.921	1.01	1.04	1.2	0.853	0.997	1.31	0.979	0.454	0.87	1.09	0.515	0.42	0.391	0.568	0.991	0.992	0.917	1.21
NCI-H520	1.05	0.79	0.844	0.683	0.995	0.863	0.706	0.554	0.713	0.554	0.62	0.631	0.577	0.309	0.324	0.366	0.752	0.748	0.485	0.303
EKVX	1.21	0.949	0.887	1	0.896	1	0.717	0.993	0.892	0.82	0.539	0.803	0.251	0.224	0.218	0.242	0.952	0.918	0.925	0.896
NCI-H1755	0.989	0.987	0.811	1.04	1.02	0.911	0.881	0.934	0.914	0.855	0.718	0.826	0.698	0.589	0.511	0.566	0.768	0.837	0.736	0.818
NCI-H2126	1.12	1.01	0.961	0.942	0.708	0.799	0.779	0.799	1.14	1.11	1.18	1.16	0.576	0.529	0.483	0.522	1.07	0.989	0.98	1.06
H3255	1.18	0.979	0.899	1.13	0.951	0.982	0.846	0.994	1.13	0.936	0.764	0.85	0.305	0.422	0.338	0.376	1.09	0.818	0.623	0.845
SK-MES-1	1.04	0.981	0.853	0.94	1.11	0.981	0.97	0.944	0.849	0.701	0.698	0.76	0.679	0.62	0.587	0.662	1.05	0.885	0.69	0.918
